Laboratory results: patent US12410185B2, “Compounds targeting mutant calreticulin” (MYELOPRO DIAGNOSTICS AND RESEARCH GmbH, priority 2018, dated 2025)

Assays:
CALR wild-type cell line = experiment: 72 h dose response of hematoxylin, analogues and control compounds; assay type: cell-based; settings: 72 h assay; read-out: IC50 in wild-type cell line
Method: Ba/F3 and UT-7-TPO were plated 5.000 cells/well and 16.000 cells/well into 96-well plates with the desirable concentrations of compounds or cytokines added to a total volume of 100 ul. 72 hours later, the CellTiter-Glo luminescent Cell Viability Assay (Promega) was used to determine the cell viability. The luminescent signal was detected by a VICTOR Multilabel Plate Reader (PerkinElmer). Dose response data was analyzed by Graphpad Prism 7.0.
To further explore the chemical space of the compound, a few hematoxylin analogues were also tested (FIGS. 15 to 17). […] The compounds Protosappanin B (A-4) and RJ002 (B-2) were also tested. […] As a comparison, the clinically used chemotherapeutic drugs hydroxyurea and ruxolitinib were also tested in the cell models.

[1] = tested on: Ba/F3-MPL cell lines carrying C-terminal truncated CALR; experiment: cytotoxicity assay in cell lines with C-terminal truncated CALR; assay type: cell-based, mouse; settings: truncated CALR mutations vs disease frameshift
Method: In order to further confirm the selective cytotoxicity of hematoxylin in CALR mutant cells, two-color competition assays were performed in both Ba/F3 and UT-7-TPO cells to assess the long-term efficacy of the compound (FIG. 9). […] The differential killing effect of hematoxylin could also be reproduced in the UT-7-TPO cell line. […] This reading frame encounters a stop codon shortly after the mutation and causes a truncation at the CALR C-terminus (FIG. 12). […] Moreover, CALR KO Ba/F3-MPL cell lines were tested for hematoxylin sensitivity.

[2] = tested on: Ba/F3-MPL CALR mutated cell line; experiment: apoptosis assay by Annexin V/PI staining; assay type: cell-based, mouse; settings: 20 uM, 24 h
Method: (§1) Ba/F3-MPL CALR wild-type and mutant cell lines were treated with hematoxylin at 20 uM or the equivalent volume of DMSO for 24 h before collection. Annexin V Apoptosis Detection Kit (eBioscience, #88-8007-74) was used based on the manufacturer's instructions. 5 ul of Propidium Iodide Staining Solution (Invitrogen, #00-6990-50) was added to each sample for 10 min before being analyzed with the BD LSRFortessa™ cell analyzer without washing.

[3] = tested on: Ba/F3-MPL CALR wild-type control; experiment: apoptosis assay by Annexin V/PI staining; assay type: cell-based, mouse; settings: 20 uM, 24 h
Method: as §1

mutant CALR protein = experiment: binding assay (data not shown)
[4] = tested on: CD34+ cells from CALR mutated patients; experiment: colony formation assay; assay type: cell-based, human; settings: 40 uM hematoxylin vs DMSO
Source text: CD34-positive cells from healthy controls and CALR mutant patients were isolated by EasySep™ Human CD34 Positive Selection Kit (#18056; [sequence] Technologies) according to the manufacturer's instructions. StemSpan™ SFEM II (#09655 or #17856; [sequence] Technologies) supplemented with 1× StemSpan™ CD34+ Expansion Supplement (#02691; [sequence] Technologies) was used to culture and expand the isolated CD34-positive cells, preferably for no more than 8 days before experiments or storage. 1000 human CD34-positive cells were plated in 1 ml of Methocult classic medium ([sequence] Technologies, #H4434) with 40 uM hematoxylin or DMSO control. Cells were incubated for 14 days before colony counting. Statistical test was calculated using two-way ANOVA with Sidak's multiple comparisons test.

Oc1cc2c(cc1O)[C@@H]1c3ccc(O)c(O)c3OC[C@]1(O)C2 [hematoxylin, Hematoxylin]
IC50 (CALR wild-type cell line): 11.1 µM
hypersensitivity towards compound treatment [1]: did not show hypersensitivity
apoptotic cell numbers [2]: significant elevation of apoptotic cell numbers
apoptotic cell numbers [3]: not in the wild-type control
binding to mutant CALR protein (mutant CALR protein): bound
number of colony forming units [4]: significantly reduced
